Assay [1] in a line: potency of ADAM10 substrate cleavage blockers – biochemical, QFRET, dose response (AID 743254).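 Further: ADAM10 enzyme with the DM2 quenched FRET peptide as substrate; EDANS fluorescence gain as the protease cuts the substrate; inhibitor potency against ADAM10 proteolytic activity.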
Assay [2] has as its target Disintegrin and metalloproteinase domain-containing protein 17 (Homo sapiens, UniProt P78536). Nature of the assay: inhibition of ADAM17 substrate cleavage – biochemical, quenched FRET substrate, counter-screen for ADAM10 exosite inhibitor project, dose response (AID 743253).
Assay [3] concerns the target T1, Nuclear receptor subfamily 0 group B member 1 (Homo sapiens, UniProt P51843).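 Further: HEK293T cells transfected with SF-1 and DAX-1 plus StAR promoter luciferase reporter.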
T1 sequence (P51843 whole entry): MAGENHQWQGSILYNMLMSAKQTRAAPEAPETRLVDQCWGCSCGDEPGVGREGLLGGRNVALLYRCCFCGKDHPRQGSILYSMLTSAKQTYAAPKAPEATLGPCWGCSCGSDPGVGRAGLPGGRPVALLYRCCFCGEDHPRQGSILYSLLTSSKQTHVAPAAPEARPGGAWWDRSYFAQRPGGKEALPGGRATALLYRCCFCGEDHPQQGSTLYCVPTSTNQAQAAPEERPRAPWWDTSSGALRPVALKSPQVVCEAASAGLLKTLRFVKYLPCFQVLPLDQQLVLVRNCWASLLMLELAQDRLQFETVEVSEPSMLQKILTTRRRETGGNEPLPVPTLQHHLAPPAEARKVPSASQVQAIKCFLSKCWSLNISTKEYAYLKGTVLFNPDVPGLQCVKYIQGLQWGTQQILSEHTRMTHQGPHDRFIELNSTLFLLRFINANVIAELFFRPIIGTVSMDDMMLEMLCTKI
Type of assay: functional, cell-based.

Assay [4] in a line: cells. Type of assay: functional, cell-based.
The target of assay [5] is T2, Trace amine-associated receptor 1 (Homo sapiens, UniProt Q96RJ0).
T2 sequence (Q96RJ0 whole entry): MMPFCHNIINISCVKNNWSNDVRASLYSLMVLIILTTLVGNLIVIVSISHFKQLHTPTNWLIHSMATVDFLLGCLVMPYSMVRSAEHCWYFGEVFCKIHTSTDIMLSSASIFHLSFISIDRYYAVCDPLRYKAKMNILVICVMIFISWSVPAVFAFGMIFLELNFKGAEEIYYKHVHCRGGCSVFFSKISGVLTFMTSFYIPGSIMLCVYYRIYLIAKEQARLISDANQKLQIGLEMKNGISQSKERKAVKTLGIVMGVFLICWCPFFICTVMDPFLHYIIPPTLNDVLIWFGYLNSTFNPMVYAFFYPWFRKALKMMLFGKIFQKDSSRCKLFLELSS
Nature of the assay: Fluorescence-based cell-based high throughput dose response assay to identify agonists of the human trace amine associated receptor 1 (TAAR1). Type of assay: functional.

The target of assay [6] is T2, Trace amine-associated receptor 1. The experiment in a line: Counterscreen for agonists of the human trace amine associated receptor 1 (hTAAR1): Fluorescence-based cell-based high throughput dose response assay to identify hTAAR1 agonist that also desensitize TAAR1 receptor response. Type of assay: functional.
Assay [7] can be described thus: cells. Type of assay: functional, cell-based. The source holds these as a separate data set.
In assay [8] the target is T3, Carboxy-terminal domain RNA polymerase II polypeptide A small phosphatase 1 (Homo sapiens, UniProt Q9GZU7).
T3 sequence (Q9GZU7 whole entry): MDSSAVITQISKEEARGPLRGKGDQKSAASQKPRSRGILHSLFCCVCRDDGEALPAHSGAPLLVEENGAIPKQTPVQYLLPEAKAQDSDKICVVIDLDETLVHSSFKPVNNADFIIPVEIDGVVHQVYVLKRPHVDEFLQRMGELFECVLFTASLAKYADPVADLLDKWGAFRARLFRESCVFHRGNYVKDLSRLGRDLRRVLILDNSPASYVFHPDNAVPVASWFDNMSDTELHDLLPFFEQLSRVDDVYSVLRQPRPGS
The experiment in a line: CTDSP1 inhibitors, concentration-response, biochemical, absorbance readout, ultra-high-throughput screen actives (AID 540297). Type of assay: functional.

Assay [9] deals with T4, Tyrosine-protein phosphatase non-receptor type 11 (Homo sapiens, UniProt Q06124).
T4 sequence (Q06124 whole entry): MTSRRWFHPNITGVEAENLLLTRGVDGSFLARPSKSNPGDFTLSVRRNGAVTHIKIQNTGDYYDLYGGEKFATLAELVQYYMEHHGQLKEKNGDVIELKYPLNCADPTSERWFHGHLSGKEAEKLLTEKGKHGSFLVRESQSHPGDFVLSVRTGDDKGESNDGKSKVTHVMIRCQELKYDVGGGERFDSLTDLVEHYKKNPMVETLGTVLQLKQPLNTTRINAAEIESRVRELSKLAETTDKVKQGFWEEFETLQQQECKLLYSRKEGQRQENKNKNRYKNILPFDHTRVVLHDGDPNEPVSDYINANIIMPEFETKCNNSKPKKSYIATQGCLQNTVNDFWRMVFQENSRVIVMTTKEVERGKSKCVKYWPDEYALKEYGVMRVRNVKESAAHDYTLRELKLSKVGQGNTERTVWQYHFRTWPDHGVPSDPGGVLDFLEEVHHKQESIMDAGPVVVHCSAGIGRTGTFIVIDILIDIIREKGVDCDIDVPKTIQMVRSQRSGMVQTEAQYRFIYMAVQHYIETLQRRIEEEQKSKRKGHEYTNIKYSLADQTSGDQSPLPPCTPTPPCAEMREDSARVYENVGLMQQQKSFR
The experiment in a line: PTPN11 enzyme inhibitors – biochemical, selectivity assay for STEP inhibitor project, dose response (AID 602367). Type of assay: functional. Particulars: read-out: IC50_Mean.

Assay [10] addresses T5, Tyrosine-protein phosphatase non-receptor type 5 (Homo sapiens, UniProt P54829).
T5 sequence (P54829 whole entry): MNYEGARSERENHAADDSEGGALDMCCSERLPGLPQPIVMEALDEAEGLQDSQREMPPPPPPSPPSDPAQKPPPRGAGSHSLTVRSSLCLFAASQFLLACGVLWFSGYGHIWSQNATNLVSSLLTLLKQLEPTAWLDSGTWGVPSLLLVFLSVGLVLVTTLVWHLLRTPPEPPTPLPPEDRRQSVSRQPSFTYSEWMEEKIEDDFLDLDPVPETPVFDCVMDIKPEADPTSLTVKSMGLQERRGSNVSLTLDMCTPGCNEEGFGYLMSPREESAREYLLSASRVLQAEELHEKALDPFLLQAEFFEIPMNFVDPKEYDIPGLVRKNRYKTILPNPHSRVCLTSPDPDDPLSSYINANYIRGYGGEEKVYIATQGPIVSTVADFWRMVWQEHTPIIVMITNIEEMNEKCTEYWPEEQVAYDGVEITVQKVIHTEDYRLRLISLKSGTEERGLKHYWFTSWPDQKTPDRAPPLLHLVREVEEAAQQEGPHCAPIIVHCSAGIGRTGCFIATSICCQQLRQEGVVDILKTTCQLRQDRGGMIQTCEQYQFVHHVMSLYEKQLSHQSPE
The experiment in a line: PTPN5 enzyme inhibition – biochemical, fluorescence intensity, uHTS hits, confirmation (AID 602372). The following applies: read-out: IC50_Mean. Type of assay: functional.

The target of assay [11] is Dual specificity protein phosphatase 3 (Homo sapiens, UniProt P51452). The experiment in a line: VHR phosphatase inhibition, dose response, selectivity assay for STEP inhibitor project, biochemical (AID 602374). Type of assay: functional. The following applies: read-out: IC50_Mean.
Assay [12] addresses T6, Low molecular weight phosphotyrosine protein phosphatase (Homo sapiens, UniProt P24666).
T6 sequence (P24666 whole entry): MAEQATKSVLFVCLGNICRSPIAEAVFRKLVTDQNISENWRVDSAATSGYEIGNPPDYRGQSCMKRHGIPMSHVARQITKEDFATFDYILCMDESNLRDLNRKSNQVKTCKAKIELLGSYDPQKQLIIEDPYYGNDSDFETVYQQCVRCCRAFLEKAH
Type of assay: functional. Particulars: read-out: IC50_Mean.

Assay [13] has as its target T6, Low molecular weight phosphotyrosine protein phosphatase. Type of assay: functional. The following applies: read-out: IC50_Mean. This is another data set of the same source.
Assay [14] addresses T7, Long-chain-fatty-acid--AMP ligase FadD28 (Mycobacterium tuberculosis, UniProt P9WQ59).
T7 sequence (P9WQ59 whole entry): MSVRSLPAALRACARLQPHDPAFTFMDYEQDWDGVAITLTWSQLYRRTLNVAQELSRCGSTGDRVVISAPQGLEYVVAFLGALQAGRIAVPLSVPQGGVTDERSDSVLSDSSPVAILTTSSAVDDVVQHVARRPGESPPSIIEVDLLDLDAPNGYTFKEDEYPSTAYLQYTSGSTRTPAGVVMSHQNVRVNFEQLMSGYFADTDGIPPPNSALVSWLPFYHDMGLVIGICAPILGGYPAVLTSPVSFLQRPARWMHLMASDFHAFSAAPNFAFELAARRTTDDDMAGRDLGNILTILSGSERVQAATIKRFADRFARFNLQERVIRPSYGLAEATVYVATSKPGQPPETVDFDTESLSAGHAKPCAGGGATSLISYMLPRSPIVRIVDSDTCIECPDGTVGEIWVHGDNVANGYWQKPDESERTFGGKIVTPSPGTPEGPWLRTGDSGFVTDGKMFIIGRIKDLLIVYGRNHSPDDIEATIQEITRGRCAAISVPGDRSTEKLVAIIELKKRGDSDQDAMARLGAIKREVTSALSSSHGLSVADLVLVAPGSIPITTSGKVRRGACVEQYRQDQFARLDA
Nature of the assay: Fluorescence polarization aasay to screen for inhibitors that compete for the binding of FadD28 to a bisubstrate Measured in Biochemical System Using Plate Reader - 2147-01_Inhibitor_Dose_CherryPick_Activity. Type of assay: functional, Mycobacterium tuberculosis H37Rv.

Calls of active or inactive are those of the source.

Disintegrin and metalloproteinase domain-containing protein 17, sequence (P78536 whole entry, the tested form may be a part): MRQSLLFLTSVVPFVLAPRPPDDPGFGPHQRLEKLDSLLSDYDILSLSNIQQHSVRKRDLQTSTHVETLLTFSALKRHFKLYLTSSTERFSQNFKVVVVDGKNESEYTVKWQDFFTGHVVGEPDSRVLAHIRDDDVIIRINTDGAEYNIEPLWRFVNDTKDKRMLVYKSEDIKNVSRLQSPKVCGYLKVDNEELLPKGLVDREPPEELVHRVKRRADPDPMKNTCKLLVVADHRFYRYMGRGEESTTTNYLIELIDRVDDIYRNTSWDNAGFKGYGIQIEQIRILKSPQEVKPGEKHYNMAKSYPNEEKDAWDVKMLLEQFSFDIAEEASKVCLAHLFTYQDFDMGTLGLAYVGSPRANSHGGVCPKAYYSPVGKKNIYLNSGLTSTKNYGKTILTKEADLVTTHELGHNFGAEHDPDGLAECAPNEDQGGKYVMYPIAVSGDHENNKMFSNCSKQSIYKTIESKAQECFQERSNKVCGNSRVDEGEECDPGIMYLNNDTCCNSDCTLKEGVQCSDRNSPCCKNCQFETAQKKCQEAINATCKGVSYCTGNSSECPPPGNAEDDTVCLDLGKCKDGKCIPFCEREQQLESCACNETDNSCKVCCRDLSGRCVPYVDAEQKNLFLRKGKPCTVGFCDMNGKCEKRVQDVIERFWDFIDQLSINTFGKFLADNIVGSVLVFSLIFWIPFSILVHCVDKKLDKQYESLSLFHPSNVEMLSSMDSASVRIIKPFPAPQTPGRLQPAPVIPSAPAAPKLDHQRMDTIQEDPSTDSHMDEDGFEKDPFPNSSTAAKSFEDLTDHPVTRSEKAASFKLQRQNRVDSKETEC
Dual specificity protein phosphatase 3, sequence (P51452 whole entry): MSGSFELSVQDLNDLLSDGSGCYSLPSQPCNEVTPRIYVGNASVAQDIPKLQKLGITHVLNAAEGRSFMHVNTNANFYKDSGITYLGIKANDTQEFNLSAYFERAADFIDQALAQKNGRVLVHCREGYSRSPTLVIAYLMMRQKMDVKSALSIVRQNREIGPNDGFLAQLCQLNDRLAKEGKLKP

As for `NS(=O)(=O)c1ccc(NCc2cc(Cl)ccc2OCc2ccccc2F)cc1`, the IC50 in [1] was 10.9 µM (inactive); in assay [2], > 69.5 µM (inactive).
Turning to `COC(=O)Nc1nc2ccc(C(=O)c3cccs3)cc2[nH]1` [NOCODAZOLE], the IC50 in assay [3] is > 0.833 µM (active).
For the compound `COc1ccc(CNCCc2ccccc2F)c(OC)c1C`, the results for the IC50 (in the assay “cells [4]”; in assay [6]) were > 29.9 µM (inactive) and 3.46 µM (active), respectively. In addition, the EC50 was 0.498 µM (active) in [5] and > 29.9 µM (inactive) in the assay “cells [7]”.
In the case of `CCCCC(=O)Nc1ccc(C(=O)NNC(=O)c2ccc(C)c(Br)c2)cc1`, the IC50 in assay [8] was 10.2 µM (active); in assay [9] it was 3.17 µM (active); in assay [10], 28 µM (inactive); in [11], 4.58 µM (active); in assay [12] it was 16.6 µM (active); in assay [13] it was 17.2 µM (active).
With `O=C(NCCc1ccccc1)c1nc(C(F)(F)F)[nH]c1-c1ccccc1`, the IC50 was > 29.9 µM (inactive) in “cells [4]” and 9.43 µM (active) in assay [6]. For the same compound, the EC50 in assay [5] was 4.78 µM (active); in the assay “cells [7]”, > 29.9 µM (inactive).
As for `COC(=O)c1ccc(COc2ccc(/C=N/Nc3cccc(C(=O)O)c3)cc2)cc1`, the AC50 in [14] is 48.9 µM (active).
